Here are results for one substance from US5919756A, “Amides” (Eli Lilly and Company, priority 1997, dated 1999).

Common to all, as to type: cell-based
The test system of test [1] is Staphylococcus haemolyticus 415. Briefly: Broth micro-dilution MIC, SH 415. To be noted: unit assumed. The protocol: (§1) The antibacterial efficacy of the present compounds is illustrated in TABLE 2. The minimal inhibitory concentrations (MICs) were determined using a standard broth micro-dilution assay.
The subject of test [2] is Staphylococcus aureus 447. In words: Broth micro-dilution MIC, SA 447. To be noted: unit assumed. As for the experimental part:
as §1
On the technique in general: In broth dilution the organism is exposed to a series of concentrations in liquid medium.

For test [3], the system named is Streptococcus pyogenes 203. Briefly: Broth micro-dilution MIC, S PY 203. To be noted: unit assumed. As for the experimental part: as §1
The test system of test [4] is Enterococcus, Sensitive (4-6 isolates). Briefly: Enterococcus screen, broth micro-dilution MIC, sensitive isolates. To be noted: mean of 4-6 isolates. On the set-up: unit not given here. As for the experimental part:
as §1

Test [5] deals with Enterococcus, Resistant (4-6 isolates). Briefly: Enterococcus screen, broth micro-dilution MIC, resistant isolates. Further details: unit not given here. To be noted: mean of 4-6 isolates. As for the experimental part:
as §1

The test system of test [6] is Staphylococcus haemolyticus 105. In words: Broth micro-dilution MIC, SH 105. The note with it: unit assumed. As for the experimental part: as §1
The test system of test [7] is Staphylococcus epidermis 270. Briefly: Broth micro-dilution MIC, SE 270. The note with it: unit assumed. The protocol:
as §1

The subject of test [8] is Staphylococcus aureus 489. Briefly: Broth micro-dilution MIC, SA 489. To be noted: unit assumed. As for the experimental part:
as §1

Test [9] has as its system Streptococcus pneumoniae P1. In words: Broth micro-dilution MIC, S PN P1. To be noted: unit assumed. The protocol:
as §1

Test [10] concerns Staphylococcus aureus 446. Briefly: Broth micro-dilution MIC, SA 446. The note with it: unit assumed. The protocol: as §1

Some results are limits rather than exact numbers.

Substance “N^4 -(4-phenoxybenzyl)A82846B, phenethylamide, trifluoroacetate salt [Example 14]” registered an MIC, SH415 in [1] of 2 mg/L. The same substance yielded an MIC, SA 447 in [2] of 2 mg/L. In addition, the MIC, S PY 203 in test [3] is not above 0.06 mg/L. Further, the “Minimum Inhibitory Concentrations (MICs), Mean Values of 4-6 Isolates, Sensitive” value in test [4] was 0.01. The “Minimum Inhibitory Concentrations (MICs), Mean Values of 4-6 Isolates, Resistant” value in test [5] was found to be 2. In test [6], this substance yielded an MIC, SH105 of 0.5 mg/L. Further, the MIC, SE270 in [7] came out at 1 mg/L. The substance further yielded an MIC, SA 489 in [8] of 1 mg/L. The MIC, S PN P1 in test [9] is not above 0.06 mg/L. The MIC, SA 446 in test [10] is 2 mg/L.
